Measurements from patent publication US11186640B2, “Method for the identification of immunotherapy-drug combinations using a network approach” (THE UNIVERSITY OF WESTERN AUSTRALIA, priority 2014, dated 2021).
Entries after “also recorded” stand apart in the source; their conditions may differ. Where two headings read alike, the source gives them in different places.

What was measured:
AB1-HA mesothelioma [1] = experiment: in vivo co-treatment with anti-CTLA-4 in AB1-HA tumour bearing mice; set-up: species or system BALB/c mice; conditions: for anti-tumour response / response rate to anti-CTLA-4 on co-treatment: drug in combination with anti-CTLA-4
[2] = system: Renca kidney cancer cells; format: in vivo, BALB/c mice
AB1-HA mesothelioma [3] = experiment: in vivo co-treatment with anti-GITR in AB1-HA tumour bearing mice; set-up: species or system BALB/c mice; conditions: drug in combination with anti-GITR
Line-1 lung cancer cells = experiment: in vivo co-treatment with anti-CTLA4 in Line-1 lung cancer model; set-up: species or system BALB/c mice
[4] = mouse, in vivo, ip, 400 mg/kg
[5] = mice, i.p. administration; cited from earlier work
melanoma = melanoma patients after ipilimumab; cited from earlier work

Compound	anti-tumour response / response rate to anti-CTLA-4 on co-treatment (AB1-HA mesothelioma [1])	other results
CC1=C(/C=C/C(C)=C/C=C/C(C)=C/C(=O)O)C(C)(C)CCC1 [ATRA, All-trans Retinoic Acid]	clear effect; also recorded: increased anti-tumour response	survival / clinical efficacy of CTLA4 blockade on co-treatment ([2]; mouse, in vivo): improve the clinical efficacy; also recorded: improved survival
O=S(=O)(c1cccc2cnccc12)N1CCCNCC1 [Fasudil]	increased the response rate	growth delay (AB1-HA mesothelioma [1]; drug alone): did not result in any growth delay
O=[N+]([O-])O[C@H]1CO[C@H]2[C@@H]1OC[C@H]2O[N+](=O)[O-] [ISDN, Isosorbide dinitrate]	increase the therapeutic efficacy; also recorded: increased the response rate	survival / efficacy of checkpoint blockade with anti-GITR on co-treatment (AB1-HA mesothelioma [3]): could equally be improved; also recorded: improved survival; survival / clinical efficacy of CTLA4 blockade on co-treatment ([2]; Renca kidney cancer, drug in combination with anti-CTLA4): improve the clinical efficacy; also recorded: improved survival; complete regression / clinical efficacy of CTLA4 blockade on co-treatment (Line-1 lung cancer cells; drug in combination with anti-CTLA4): improve the clinical efficacy; also recorded: complete regression in a substantial proportion of mice; complete regression (Line-1 lung cancer cells; either treatment alone): not observed
CCOC(=O)N1CCN(/[N+]([O-])=N/Oc2ccc([N+](=O)[O-])cc2[N+](=O)[O-])CC1 [JS-K]	improves the clinical benefit	–
NC(=NCCC[C@H](N)C(=O)O)N[N+](=O)[O-] [L-NNA]	diminished; also recorded: abrogated the anti-tumour effect	–
Cc1cc(Nc2cc(N3CCN(C)CC3)nc(Sc3ccc(NC(=O)C4CC4)cc3)n2)n[nH]1 [VX-680]	significantly increased	–
CN1CC[C@H](c2c(O)cc(O)c3c(=O)cc(-c4ccccc4Cl)oc23)[C@H](O)C1 [flavopiridol]	increased the response rate	–
COc1c2c(cc3c1OCO3)CCN(C)C2 [hydrocotarnine]	increased anti-tumour response	–
Cc1cc2c(cc1S(N)(=O)=O)S(=O)(=O)CCC2 [meticrane]	clear effect; also recorded: increased anti-tumour response	clinical signs [4]: slightly ruffled; LD50 [5]: 10000 mg/kg
Cc1ncc(CO)c(CO)c1O [pyridoxine]	clear effect; also recorded: increased anti-tumour response	–
ipilimumab	–	7-year survival (melanoma): 17%
